For assay [1], the target named is T1, recombinant human XIAP-BIR3 protein (Homo sapiens, UniProt P98170).
T1 construct: recombinant human XIAP-BIR3 protein; purchased Reaction biology APT-11-374
The assay is described as follows: Recombinant human XIAP-BIR3 biochemical assay (HTRF, peptide displacement). To be noted: 3.7 nM XIAP-BIR3, 7.6 nM AbuRPF-K(5-Fam)-NH2 peptide, read-out: Protein binding IC50 (nM) XIAP. In short, it runs like this: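 3.7 nM His-tagged XIAP-BIR3 was preincubated 1 h RT with compound (top 10 µM, 4-fold, 10 points) in 20 mM HEPES pH 7.5, 50 mM NaCl, 0.005% Tween-20, 1 mM DTT. 7.6 nM AbuRPF-K(5-Fam)-NH2 peptide was then added, followed by anti-6His Tb cryptate, 1 h each. HTRF 520/490 nm ratio; four-parameter logistic IC50.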
A general note: In TR-FRET formats the signal depends on donor and acceptor labels being close together.

In assay [2] the target is T2, recombinant human cIAP1-BIR3 protein (Homo sapiens, UniProt Q13490).
T2 construct: recombinant human cIAP1-BIR3 protein; purchased Reaction biology APT-11-370
The experiment in a line: Recombinant human c-IAP1-BIR3 biochemical assay (HTRF, peptide displacement). To be noted: 1.2 nM cIAP1-BIR3, 3 nM AbuRPF-K(5-Fam)-NH2 peptide, read-out: Protein binding IC50 (nM) c-IAP1. In short, it runs like this:
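1.2 nM cIAP1-BIR3 preincubated 1 h at room temperature with compound (10 points, 4-fold, top 10 uM) in 20 mM HEPES pH 7.5, 50 mM NaCl, 1 mM DTT; 3 nM AbuRPF-K(5-Fam)-NH2 then added for 1 h, then anti-6His Tb cryptate for 1 h. 520/490 nm ratio; IC50 by four-parameter logistic fit.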

Assay [3] deals with T3, recombinant human cIAP2-BIR3 protein (Homo sapiens, UniProt Q13489).
T3 construct: recombinant human cIAP2-BIR3 protein; purchased Reaction biology APT-11-372
The assay is described as follows: Recombinant human c-IAP2-BIR3 biochemical assay (HTRF, peptide displacement). To be noted: 3.7 nM cIAP2-BIR3, 3.7 nM AbuRPF-K(5-Fam)-NH2 peptide, read-out: Protein binding IC50 (nM) c-IAP2. In short, it runs like this:
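3.7 nM protein pre-incubated 1 h at room temperature with compounds (top 10 uM, 4-fold, 10 points) in 20 mM HEPES pH 7.5, 50 mM NaCl, 0.005% Tween-20, 1 mM DTT. Then 3.7 nM AbuRPF-K(5-Fam)-NH2 for 1 h, then anti-6His Tb cryptate 1 h. IC50 from 520/490 nm HTRF ratio, four-parameter logistic fit.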

Counter-ions that a name gives are not always drawn.

Usually IC50 stands for the midpoint of a concentration-inhibition curve.

T2 sequence (Q13490 253-363 limits assumed): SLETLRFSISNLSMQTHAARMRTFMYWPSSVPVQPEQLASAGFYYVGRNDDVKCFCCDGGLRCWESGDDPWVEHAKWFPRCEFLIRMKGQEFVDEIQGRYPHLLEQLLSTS
T3 sequence (Q13489 238-349 limits assumed): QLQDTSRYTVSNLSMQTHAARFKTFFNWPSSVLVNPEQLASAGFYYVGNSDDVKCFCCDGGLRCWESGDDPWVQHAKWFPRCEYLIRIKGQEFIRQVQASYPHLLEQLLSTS
T1 sequence (P98170 241-356 limits assumed): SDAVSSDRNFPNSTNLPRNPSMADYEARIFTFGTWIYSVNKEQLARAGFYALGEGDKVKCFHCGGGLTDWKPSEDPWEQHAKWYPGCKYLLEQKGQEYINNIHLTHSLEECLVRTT

Consider `C[C@@H]1CN(CC(=O)N2c3cc(Cc4ccc(F)cc4)c(CO)nc3OC[C@@H]2C)[C@@H](CN2C[C@@H]3C[C@H]2CO3)CN1` [Example 85, 2-((2R,5R)-2-(((1S,4S)-2-oxa-5-azabicyclo[2.2.1]heptan-5-yl)methyl)-5-methylpiperazin-1-yl)-1-((S)-7-(4-fluorobenzyl)-6-(hydroxymethyl)-2-methyl-2,3-dihydro-1H-pyrido[2,3-b][1,4]oxazin-1-yl)ethan-1-one], for which the IC50 in assay [1] was 20 nM; in assay [2], 0.68 nM; in assay [3], 0.72 nM.
In the same order, the values of `C[C@@H]1CN(CC(=O)N2CCOc3ncc(Cc4ccc(F)cc4)cc32)[C@@H](CN2C[C@@H]3C[C@H]2CO3)CN1` [Compound 13, 2-((2R,5R)-2-(((1S,45)-2-oxa-5-azabicyclo[2.2.1]heptan-5-yl)methyl)-5-methylpiperazin-1-yl)-1-(7-(4-fluorobenzyl)-2,3-dihydro-1H-pyrido[2,3-b][1,4]oxazin-1-yl)ethan-1-one] are 24 nM, 1.02 nM and 1.5 nM.
As to `C[C@@H]1CN(CC(=O)N2CCOc3ncc(Cc4ccc(F)cc4)cc32)[C@@H](CN2CCOC[C@H]2C)CN1` [Compound 2, 1-(7-(4-fluorobenzyl)-2,3-dihydro-1H-pyrido[2,3-b][1,4]oxazin-1-yl)-2-((2R,5R)-5-methyl-2-(((R)-3-methylmorpholino)methyl)piperazin-1-yl)ethan-1-one formate], the figures for the IC50 in assay [1], in assay [2] and in assay [3] were 24 nM, 0.9 nM and 2.5 nM, respectively.
Taken in the same sequence, the figures for `CC(C)[C@H]1COc2ncc(Cc3ccc(F)cc3)cc2N1C(=O)CN1C[C@@H](C)NC[C@@H]1CN1[C@H](C)COC[C@H]1C` [Compound 46, 2-((2R,5R)-2-(((3R,5R)-3,5-dimethylmorpholino)methyl)-5-methylpiperazin-1-yl)-1-((S)-7-(4-fluorobenzyl)-2-isopropyl-2,3-dihydro-1H-pyrido[2,3-b][1,4]oxazin-1-yl)ethan-1-one] were 63 nM, 0.24 nM and 0.47 nM.
Taken in the same sequence, the figures for `C[C@@H]1CN(CC(=O)N2c3cc(Cc4ccc(F)cc4)c(CN4CCOCC4)nc3OC[C@@H]2C)[C@@H](CN2[C@H](C)COC[C@H]2C)CN1` [Compound 92] were 8.7 nM, 0.37 nM and 0.53 nM.
In the same order, the values of `C[C@@H]1CN(CC(=O)N2CCOc3nc(CO)c(Cc4ccc(F)cc4)cc32)[C@@H](CN2CCOC[C@H]2C)CN1` [Compound 8, 1-(7-(4-fluorobenzyl)-6-(hydroxymethyl)-2,3-dihydro-1H-pyrido[2,3-b][1,4]oxazin-1-yl)-2-((2R,5R)-5-methyl-2-(((R)-3-methylmorpholino)methyl)piperazin-1-yl)ethan-1-one] are 45 nM, 1 nM and 2.9 nM.
Consider `C[C@@H]1CN(CC(=O)N2c3cc(Cc4ccc(F)cc4)c(CO)nc3OC[C@@H]2C)[C@@H](CN2CCOC[C@H]2C(F)(F)F)CN1` [Compound 91A, 1-((S)-7-(4-fluorobenzyl)-6-(hydroxymethyl)-2-methyl-2,3-dihydro-1H-pyrido[2,3-b][1,4]oxazin-1-yl)-2-((2R,5R)-5-methyl-2-(((S)-3-(trifluoromethyl)morpholino)methyl)piperazin-1-yl)ethan-1-one], for which the results for the IC50 in assay [1], in assay [2] and in assay [3] were 30 nM, 0.72 nM and 1.25 nM, respectively.
With `C[C@@H]1CN(CC(=O)N2c3cc(Cc4ccc(F)cc4)c(C(=O)N4CCC(F)(F)CC4)nc3OC[C@@H]2C)[C@@H](CN2[C@H](C)COC[C@H]2C)CN1` [Compound 103, 1-((S)-6-(4,4-difluoropiperidine-1-carbonyl)-7-(4-fluorobenzyl)-2-methyl-2,3-dihydro-1H-pyrido[2,3-b][1,4]oxazin-1-yl)-2-((2R,5R)-2-(((3R,5R)-3,5-dimethylmorpholino)methyl)-5-methylpiperazin-1-yl)ethan-1-one], the IC50 came to 5.1 nM in assay [1], 0.24 nM in assay [2] and 0.43 nM in assay [3].
Taken in the same sequence, the figures for `C[C@@H]1CN(CC(=O)N2c3cc(Cc4ccc(F)cc4)c(C(=O)NCC4CC4)nc3OC[C@@H]2C)[C@@H](CN2[C@H](C)COC[C@H]2C)CN1` [Example 70, (S)—N-(cyclopropylmethyl)-1-(2-((2R,5R)-2-(((3R,5R)-3,5-dimethylmorpholino)methyl)-5-methylpiperazin-1-yl)acetyl)-7-(4-fluorobenzyl)-2-methyl-2,3-dihydro-1H-pyrido[2,3-b][1,4]oxazine-6-carboxamide] were 1.9 nM, 0.16 nM and 0.27 nM.
As to `C[C@@H]1CN(CC(=O)N2c3cc(Cc4ccc(F)cc4F)c(CO)nc3OC[C@@H]2C)[C@@H](CN2[C@H](C)COC[C@H]2C)CN1` [Example 60, 1-((S)-7-(2,4-difluorobenzyl)-6-(hydroxymethyl)-2-methyl-2,3-dihydro-1H-pyrido[2,3-b][1,4]oxazin-1-yl)-2-((2R,5R)-2-(((3R,5R)-3,5-dimethylmorpholino)methyl)-5-methylpiperazin-1-yl)ethan-1-one], the IC50 in assay [1] amounted to 7.5 nM; in assay [2], 0.13 nM; in assay [3], 0.34 nM.
In the same order, the values of `C[C@@H]1CN(CC(=O)N2c3cc(Cc4ccc(F)cc4)c(CO)nc3OC[C@@H]2C)[C@@H](CN2CCOC[C@H]2C)CN1` [Compound 25, 1-((S)-7-(4-fluorobenzyl)-6-(hydroxymethyl)-2-methyl-2,3-dihydro-1H-pyrido[2,3-b][1,4]oxazin-1-yl)-2-((2R,5R)-5-methyl-2-(((R)-3-methylmorpholino)methyl)piperazin-1-yl)ethan-1-one] are 6 nM, 0.3 nM and 0.5 nM.
On to `C[C@@H]1CN(CC(=O)N2c3cc(Cc4ccc(F)cc4)c(C(=O)NC(C)(C)C)nc3OC[C@@H]2C)[C@@H](CN2[C@H](C)COC[C@H]2C)CN1` [Compound 120], for which the IC50 is 6.8 nM in assay [1], 0.24 nM in assay [2] and 0.39 nM in assay [3].
Taken in the same sequence, the figures for `C[C@@H]1CN(CC(=O)N2c3cc(Cc4ccc(F)cc4)c(C(=O)N4CCN(C)CC4)nc3OC[C@@H]2C)[C@@H](CN2[C@H](C)COC[C@H]2C)CN1` [Compound 104] were 18.1 nM, 0.26 nM and 0.83 nM.
For the molecule `C[C@@H]1CN(CC(=O)N2c3cc(Cc4ccc(F)cc4)c(C(N)=O)nc3OC[C@@H]2C)[C@@H](CN2CCOC[C@H]2C(F)F)CN1` [Example 82], the IC50 in assay [1] amounted to 10 nM; in assay [2], 0.54 nM; in assay [3], 0.73 nM.
Take `CCOc1nc2c(cc1Cc1ccc(F)cc1)N(C(=O)CN1C[C@@H](C)NC[C@@H]1CN1CCOC[C@H]1C)CCO2` [Compound 17, 1-(6-ethoxy-7-(4-fluorobenzyl)-2,3-dihydro-1H-pyrido[2,3-b][1,4]oxazin-1-yl)-2-((2R,5R)-5-methyl-2-(((R)-3-methylmorpholino)methyl)piperazin-1-yl)ethan-1-one]: the figures for the half-inhibitory concentration (IC50) in assay [1], in assay [2] and in assay [3] were 5.4 nM, 0.53 nM and 1.3 nM, respectively.
In the same order, the values of `CCNC(=O)c1nc2c(cc1Cc1ccc(F)cc1)N(C(=O)CN1C[C@@H](C)NC[C@@H]1CN1[C@H](C)COC[C@H]1C)[C@@H](C)CO2` [Example 65, (S)-1-(2-((2R,5R)-2-(((3R,5R)-3,5-dimethylmorpholino)methyl)-5-methylpiperazin-1-yl)acetyl)-N-ethyl-7-(4-fluorobenzyl)-2-methyl-2,3-dihydro-1H-pyrido[2,3-b][1,4]oxazine-6-carboxamide] are 4.4 nM, 0.22 nM and 0.44 nM.
Taken in the same sequence, the figures for `C[C@@H]1CN(CC(=O)N2c3cc(Cc4ccc(F)cc4)c(C(N)=O)nc3OC[C@@H]2C)[C@@H](CN2CCOCC2(C)C)CN1` [Example 61, (S)-1-(2-((2R,5R)-2-((3,3-dimethylmorpholino)methyl)-5-methylpiperazin-1-yl)acetyl)-7-(4-fluorobenzyl)-2-methyl-2,3-dihydro-1H-pyrido[2,3-b][1,4]oxazine-6-carboxamide] were 14 nM, 0.43 nM and 1.08 nM.
Take `C[C@@H]1CN(CC(=O)N2c3cc(Cc4ccc(F)cc4)c(CO)nc3OC[C@@H]2C)[C@@H](CN2[C@H](C)CN(C)C[C@H]2C)CN1` [Compound 105, 1-((S)-7-(4-fluorobenzyl)-6-(hydroxymethyl)-2-methyl-2,3-dihydro-1H-pyrido[2,3-b][1,4]oxazin-1-yl)-2-((2R,5R)-5-methyl-2-(((2R,6R)-2,4,6-trimethylpiperazin-1-yl)methyl)piperazin-1-yl)ethan-1-one]: the IC50 in assay [1] was determined as 11.3 nM; in assay [2], 0.28 nM; in assay [3], 0.35 nM.

The values are drawn from US12583866B2, “Pyrido[2,3-b][1,4]oxazines or tetrahydropyrido[2,3-b][1,4]oxazepines as IAP antagonists” (BEIGENE, LTD., priority 2020, dated 2026).
